In patent publication US11478457B2, “Castration-resistant prostate cancer” (priority 2015, dated 2022):
Numbering of substitutions follows the chain as printed. One block for each compound: values may come before it.

Key:
[1] = molecular target: T1, UDP-glucose dehydrogenase (Homo sapiens, UniProt O60701); assay: High throughput screening for inhibitors of UDP-glucose dehydrogenase (NADH fluorescence); type: biochemical; conditions: read-out: POC (Percent of Controls); for inhibition at 25 µg/mL (stock): compound plates 20 μL/well of 25 μg/mL compound in 2.5% DMSO, relative to DMSO negative and UDP-xylose positive controls, higher POC = more inhibitory
T1 sequence (O60701 1-494): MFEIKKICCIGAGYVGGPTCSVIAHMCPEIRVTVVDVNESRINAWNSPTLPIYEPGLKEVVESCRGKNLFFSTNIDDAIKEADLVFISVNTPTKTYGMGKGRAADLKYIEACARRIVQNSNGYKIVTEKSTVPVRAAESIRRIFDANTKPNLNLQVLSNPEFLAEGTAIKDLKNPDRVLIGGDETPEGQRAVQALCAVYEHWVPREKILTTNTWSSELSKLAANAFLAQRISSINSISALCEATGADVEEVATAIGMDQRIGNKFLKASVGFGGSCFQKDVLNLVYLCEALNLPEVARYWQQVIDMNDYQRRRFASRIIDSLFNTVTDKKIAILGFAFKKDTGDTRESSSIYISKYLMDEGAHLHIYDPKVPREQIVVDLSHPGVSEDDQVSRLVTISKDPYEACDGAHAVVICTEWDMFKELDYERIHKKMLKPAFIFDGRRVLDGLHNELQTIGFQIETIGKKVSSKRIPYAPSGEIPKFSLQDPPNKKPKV

UGDH T325A = molecular target: T2, UGDH T325A (Homo sapiens, UniProt O60701, T325A); assay: Limited trypsin proteolysis of UGDH, T325A
T2 sequence (O60701 1-494 T325A): T1 sequence (O60701 1-494) with T325A
Method: (§1) UDP-xylose [20 μM] protected T325A apo from trypsin digestion (red star) and only slightly affected the other forms. […] Each assay contained 10 μg of enzyme, 10 ng Trypsin, and combinations of substrate, cofactor, and UDP-xylose, which was incubated 2.5 h, followed by SDS-PAGE.
(§2) The same procedures from above (see e.g., Example 7) were followed.

[2] = molecular target: T3, T325A (inducible hexamer) UGDH (Homo sapiens, UniProt O60701, T325A); assay: Thermal stability of UGDH, T325A; type: binding
T3 sequence (O60701 1-494 T325A): T1 sequence (O60701 1-494) with T325A
Method: (§3) FIG. 8A-8D show UDP-xylose effects on the thermal stability of WT, T325A (inducible hexamer), and T325D (obligate dimer) UGDH. […] Statistical analyses were performed using a two-way ANOVA with Bonferroni post tests on PRISM.

WT UGDH [3] = molecular target: T4, WT UGDH (Homo sapiens, UniProt O60701); assay: Thermal stability of UGDH, WT; type: binding
T4 sequence (O60701 1-494): T1 sequence (O60701 1-494)
Method: as §3

[4] = molecular target: T5, T325A-UGDH (inducible hexamer) (Homo sapiens, UniProt O60701, T325A); assay: UGDH inhibition assay (IC50, Ki), T325A mutant; type: biochemical
T5 sequence (O60701 1-494 T325A): T1 sequence (O60701 1-494) with T325A
Method: (§4) Ki values were determined by varying [UDP-glc] and holding NAD+ at saturating concentrations.
(§5) IC50 experiments were performed as described above (see e.g., Example 2).

WT UGDH [5] = molecular target: T4, WT UGDH; assay: UGDH inhibition assay (IC50, Ki), WT enzyme; type: biochemical; conditions: for IC50: 50 μM UDP-glc and 1 mM NAD+; for Mode of inhibition: UGDH
Method: as §4, §5

[6] = molecular target: T6, T325D (obligate dimer) UGDH (Homo sapiens, UniProt O60701, T325D); assay: Thermal stability of UGDH, T325D; type: binding
T6 sequence (O60701 1-494 T325D): T1 sequence (O60701 1-494) with T325D
Method: as §3

[7] = molecular target: T7, T325D-UGDH (obligate dimer) (Homo sapiens, UniProt O60701, T325D); assay: UGDH inhibition assay (IC50, Ki), T325D mutant; type: biochemical; conditions: required 4 μM T325D instead of 1 μM
T7 sequence (O60701 1-494 T325D): T1 sequence (O60701 1-494) with T325D
Method: as §4, §5

WT UGDH [8] = molecular target: T4, WT UGDH; assay: Limited trypsin proteolysis of UGDH, WT; conditions: WT ternary complexes; 500 μM
Method: as §1, §2

T325A-UGDH = molecular target: T8, T325A-UGDH (Homo sapiens, UniProt O60701, T325A); assay: UGDH kinetic characterization, T325A; type: biochemical; conditions: substrate/cofactor varied
T8 sequence (O60701 1-494 T325A): T1 sequence (O60701 1-494) with T325A
From the text: (§6) T325A and T325D are engineered inducible hexameric and obligate dimeric UGDH species, respectively.

T325D-UGDH = molecular target: T9, T325D-UGDH (Homo sapiens, UniProt O60701, T325D); assay: UGDH kinetic characterization, T325D; type: biochemical; conditions: substrate/cofactor varied
T9 sequence (O60701 1-494 T325D): T1 sequence (O60701 1-494) with T325D
From the text: as §6

WT UGDH [9] = molecular target: T4, WT UGDH; assay: UGDH kinetic characterization, WT; type: biochemical; conditions: substrate/cofactor varied
From the text: as §6

UGDH T325D = molecular target: T10, UGDH T325D (Homo sapiens, UniProt O60701, T325D); assay: Limited trypsin proteolysis of UGDH, T325D; conditions: 20 μM, 2.5 h
T10 sequence (O60701 1-494 T325D): T1 sequence (O60701 1-494) with T325D
Method: as §1, §2

SMILES: CC(=O)NC(CC(=O)c1ccc(Cl)cc1Cl)C(Cl)(Cl)Cl (centres unmarked)
inhibition at 25 µg/mL (stock) [1]: 86%

SMILES: O=C1C(Cl)=C(Cl)C(=O)C(Cl)=C1Cl
inhibition at 25 µg/mL [1]: 79%

SMILES: O=C(O)CCc1ccc(-c2cccs2)o1 [Compound 31, 3-[5-(2-thienyl)-2-furyl]propanoic acid]
Effect on trypsin digestion (UGDH T325A; T325A ternary complexes, 500 μM): significantly affects | IC50 [7]: 799.4 ± 0.05 µM | Effect on thermal stability ([2]; T325A, all binary complexes except UDP-glucose): decreasing thermal stability | Effect on trypsin digestion (WT UGDH [8]): significantly affects | IC50 [4]: 86.98 ± 0.03 µM | Mode of inhibition (WT UGDH [5]): allosteric inhibitor | IC50 (WT UGDH [5]; WT-UGDH): 146.8 ± 1.05 µM | Effect on thermal stability ([6]; T325D, all binary complexes except UDP-glucose): decreasing thermal stability

SMILES: NC(=O)c1ccc[n+]([C@@H]2O[C@H](COP(=O)([O-])OP(=O)(O)OC[C@H]3O[C@@H](n4cnc5c(N)ncnc54)[C@H](O)[C@@H]3O)[C@@H](O)[C@H]2O)c1 [NAD+]
Km (T325A-UGDH): 1680 ± 455 µM | VMAX (T325A-UGDH): 103 ± 8.5 nmol/min/mg | Km (T325D-UGDH): 1200 ± 290 µM | VMAX (T325D-UGDH): 38.0 ± 2.5 nmol/min/mg | Km (WT UGDH [9]): 1030 ± 215 µM | VMAX (WT UGDH [9]): 206.1 ± 13.0 nmol/min/mg

SMILES: O=c1ccn([C@@H]2O[C@H](COP(=O)(O)OP(=O)(O)O[C@H]3OC[C@@H](O)[C@H](O)[C@H]3O)[C@@H](O)[C@H]2O)c(=O)[nH]1 [UDP-xylose, reference compound]
Effect on trypsin digestion (UGDH T325A; T325A apo, 20 μM, 2.5 h): protected | Effect on thermal stability ([2]; NAD+ complex with T325A): significantly increase thermal stability | Effect on thermal stability ([2]; apo T325A): increased the thermal stability | Effect on trypsin digestion (UGDH T325D; T325D apo and UDP-glc forms): did not affect | Effect on trypsin digestion (UGDH T325D; T325D complexes with NAD+, NADH, and UDP-glcA): significantly protected | Effect on thermal stability (WT UGDH [3]; NAD+ complex with WT): significantly increase thermal stability | Effect on thermal stability (WT UGDH [3]; apo WT): increased the thermal stability | Mode of inhibition (WT UGDH [5]): competitive inhibitor | IC50 (WT UGDH [5]; WT-UGDH): 0.58 ± 0.09 µM | Ki (WT UGDH [5]; WT-UGDH, varying [UDP-glc], NAD+ at saturating concentrations): 2.67 ± 0.54 µM | Effect on thermal stability ([6]; NAD+ complex with T325D): significantly increase thermal stability

The remaining lines, values ahead:

Effect on trypsin digestion (UGDH T325A; T325A with UDP-glcA and UDP-glcA with NADH, 750 μM): significantly affects | Effect on thermal stability ([2]; UDP-glcA complex with T325A): decrease thermal stability | Effect on thermal stability (WT UGDH [3]; UDP-glcA complex with WT): decrease thermal stability | Ki ([4]; varying [UDP-glc], NAD+ at saturating concentrations): 421 ± 118 µM | IC50 (WT UGDH [5]; WT-UGDH): 261 ± 6.2 µM | Effect on thermal stability ([6]; UDP-glcA complex with T325D): decrease thermal stability
SMILES: CCC(C)(O)c1nnn(-c2nonc2N)c1C(C)(O)CC (centres unmarked) [Compound 1, 2,2′-[1-(4-amino-1,2,5-oxadiazol-3-yl)-1H-1,2,3-triazole-4,5-diyl]di(2-butanol)]

inhibition at 25 µg/mL (stock) [1]: 101%
SMILES: CCC(C)(O)c1nnn(-c2nonc2N)c1C(C)(O)CC (centres unmarked) [drawing 178]

inhibition at 25 µg/mL (stock) [1]: 87%
SMILES: O=C(O)CCc1ccc(-c2cccs2)o1 [drawing 227]
